Test results as given in PubChem BioAssay (NCI).
Several values for one entry are separate records, joined by “and”; a condition that tells them apart may be missing. Equal values may be shown once.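 Briefly, cells in 96-well plates were exposed to five compound concentrations for 48 h, and endpoints were estimated by linear interpolation. GI50 is the concentration that inhibits growth by half. TGI: concentration producing complete growth inhibition.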

How the values were obtained:
Experiment in all cases: NCI anticancer screen, dose series, 48 h
[1] = test system: HOP-92 NSCLC
[2] = test system: MALME-3M melanoma
[3] = test system: MCF7 breast
[4] = test system: MDA-MB-231 breast
[5] = test system: MOLT-4 leukemia
[6] = test system: NCI/ADR-RES ovarian
[7] = test system: RPMI-8226 leukemia
[8] = test system: SK-MEL-5 melanoma
[9] = test system: UACC-257 melanoma
[10] = test system: UACC-62 melanoma

Row | SMILES | TGI [1] | TGI [2] | TGI [3] | TGI [4] | TGI [5] | TGI [6] | TGI [7] | TGI [8] | TGI [9] | TGI [10] | GI50 [1] | GI50 [2] | GI50 [3] | GI50 [4] | GI50 [5] | GI50 [6] | GI50 [7] | GI50 [8] | GI50 [9] | GI50 [10]
1 | O=C1c2ccccc2C(=O)c2c(NCCCNCCO)ccc(NCCCNCCO)c21 | 26.2 µM | 27.9 µM | 10.8 µM | 24.2 µM | 18.5 µM | > 100 µM | 53.1 µM | 28.7 µM | 46.8 µM | 24.6 µM |  |  |  |  |  |  |  |  |  | 
2 | COc1cc(C)c(C(=O)O[C@H]2[C@H](O[C@H]3[C@@H](O)COC(O[C@H]4C[C@H]5[C@@H]6CC=C7C[C@@H](O)CC[C@]7(C)[C@H]6CC[C@]5(C)[C@H]4[C@H](C)C(=O)CCC(C)C)[C@@H]3OC(C)=O)OC[C@@H](O)[C@@H]2O)c(C)c1 (stereo not given in full) | 2.58 µM | 5.89 µM | 7.62 µM | 16.1 µM | 0.704 µM | 31.2 µM | < 0.01 µM | 0.0181 µM | 0.0738 µM | < 0.01 µM | < 0.01 µM | 0.0257 µM | < 0.01 µM | 0.517 µM | < 0.01 µM | 4.79 µM | < 0.01 µM | < 0.01 µM | 0.021 µM | < 0.01 µM
3 | COc1ccc(-c2oc(=O)ccc2C#Cc2cc(OC)c(OC)c(OC)c2)cc1O | 31.2 µM | > 100 µM | 51.7 µM | > 100 µM | > 100 µM | > 100 µM | 35.1 µM | 26.6 µM | > 100 µM | 63.5 µM | 5.47 µM | 71.8 µM | 15.9 µM | 11.6 µM | 3.17 µM | 24.4 µM | 10.9 µM | 7.55 µM | 36.4 µM | 13.5 µM
4 | C[C@]12O[C@H](C[C@]1(O)CO)n1c3ccccc3c3c4c(c5c6ccccc6n2c5c31)CNC4=O | 0.65 µM and 1.16 µM | 1.35 µM and 1.27 µM | 3.41 µM and 1.92 µM | 2.82 µM and 3 µM | 0.451 µM and 1.18 µM | 5.15 µM and 7.26 µM | 1.6 µM and 1.75 µM | 2.06 µM and 1.84 µM | 2.57 µM and 2.46 µM | 1.3 µM and 1.15 µM | 0.0422 µM and 0.174 µM | 0.0324 µM and 0.0298 µM | 0.0774 µM and 0.0605 µM | 0.126 µM and 0.151 µM | 0.0386 µM and 0.0457 µM | 0.87 µM and 1.37 µM | 0.134 µM and 0.215 µM | 0.398 µM and 0.0869 µM | 0.25 µM and 0.366 µM | 0.0366 µM and 0.0402 µM
5 | C(=N\Nc1nnc2c(n1)[nH]c1ccccc12)/c1cccnc1 | > 100 µM | > 100 µM | > 100 µM | > 100 µM | > 100 µM | > 100 µM | > 100 µM | > 100 µM | > 100 µM | > 100 µM |  |  |  |  |  |  |  |  |  | 
6 | CN(C)CCCNc1nn2c(=O)c3ccccc3nc2c2ccccc12 | 59.3 µM | 29.8 µM | 15.6 µM | 28.1 µM | 7.16 µM | 35.5 µM | 33.7 µM | 20.9 µM | 32.6 µM |  | 4.13 µM | 11.8 µM | 3.43 µM | 8.02 µM | 2.47 µM | 12.3 µM | 11.9 µM | 7.74 µM | 16 µM | 
7 | O=C(/C=C/c1ccc(C(F)(F)F)cc1)c1ccc(Nc2nc(NCCO)nc(NCCO)n2)cc1 | 25 µM | 18.8 µM | 5.16 µM | 13.8 µM | 10.7 µM | 35 µM | 5.23 µM | 10.5 µM | 23.4 µM | 6.03 µM | 5.28 µM | 4.95 µM | 1.66 µM | 3.29 µM | 2.68 µM | 15.2 µM | 2.12 µM | 3.12 µM | 10.3 µM | 2.13 µM
8 | CC(C)C[C@H](NC(=O)[C@H](CCc1ccccc1)NC(=O)CN1CCOCC1)C(=O)N[C@@H](Cc1ccccc1)C(=O)N[C@@H](CC(C)C)C(=O)[C@@]1(C)CO1 | 0.0812 µM | 0.586 µM | 5.41 µM | 0.0635 µM | > 100 µM | > 100 µM |  | 0.0434 µM | 0.287 µM | 0.114 µM | 0.0236 µM | 0.0527 µM | < 0.01 µM | < 0.0128 µM | < 0.01 µM | 0.636 µM | < 0.01 µM | < 0.0136 µM | 0.0547 µM | 0.033 µM
9 | C/C1=C\[C@H](C)C[C@H](C)OC(=O)C[C@H](c2ccc(O)cc2)NC(=O)[C@@H](Cc2c(Br)[nH]c3ccccc23)N(C)C(=O)[C@H](C)NC(=O)[C@@H](C)C1 | 0.532 µM and 0.535 µM | 0.404 µM and 0.196 µM | > 100 µM | 0.0741 µM | 4.54 µM | 2.02 µM |  | 0.578 µM and 0.391 µM | 0.37 µM and 1.15 µM | 0.9 µM and 1.44 µM | 0.0304 µM | 0.032 µM | 0.208 µM |  | 0.0764 µM | 0.0706 µM | < 0.0176 µM | 0.0451 µM | 0.0747 µM | 0.0414 µM
10 | CCCS(=O)(=O)Nc1ccc(F)c(C(=O)c2c[nH]c3ncc(-c4ccc(Cl)cc4)cc23)c1F | 12.5 µM and > 10 µM | 0.0772 µM | 20.9 µM and > 10 µM | 18.9 µM and > 10 µM | 16.1 µM and > 10 µM | 31.6 µM and > 10 µM | 37.4 µM and > 10 µM | 13.6 µM and > 10 µM | 3.71 µM and 0.604 µM | 0.496 µM and 0.485 µM | 2.63 µM and 4.84 µM | 0.0161 µM and 0.0331 µM | 5.24 µM and 8.84 µM | 3.98 µM and 5.16 µM | 3.72 µM and > 8.33 µM | 6.75 µM and > 10 µM | 3.9 µM and 6.36 µM | 0.471 µM and 1.85 µM | 0.0485 µM and 0.0643 µM | 0.0241 µM and 0.034 µM
11 | COc1ccc(N2CCN(C(=O)c3ccccc3Nc3ccnc(C(F)(F)F)c3)CC2)cc1 | 68.8 µM | > 100 µM | > 100 µM | > 100 µM | > 100 µM | > 100 µM | > 100 µM | 29.4 µM | > 100 µM | > 100 µM | 5.33 µM | > 100 µM | 36.4 µM | > 100 µM | 29.3 µM | 23.8 µM | 9.48 µM | 10.3 µM | 20.8 µM | 30.9 µM
12 | Cl.[Pt].[c-]1ccccc1-c1ccccn1.c1ccc(P(c2ccccc2)C([PH+](c2ccccc2)c2ccccc2)[PH+](c2ccccc2)c2ccccc2)cc1 | 5.18 µM | 2.65 µM | 47 µM | 5.24 µM | 11.6 µM | 76.5 µM | 3.66 µM | 2.8 µM | 38 µM | 4.75 µM | 1.41 µM | 0.42 µM | 1.52 µM | 1.93 µM | 2.13 µM | 5.21 µM | 0.525 µM | 1.25 µM | 3.26 µM | 1.7 µM
